Values joined by “and” are separate entries in the source; they are usually repeats but may differ in a detail not shown here. Identical values can stand only once.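 Five concentrations, 48 hours, 96-well plates. Abbreviation: GI50, concentration required for 50% inhibition of growth. TGI: concentration producing complete growth inhibition.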 Where only a bound is given, the exact number is not on record here.

Test systems include NCI-H23 lung; COLO 205 colon; T-47D breast; RPMI-8226 leukemia; EKVX NSCLC; HL-60(TB) leukemia; MOLT-4 leukemia; BT-549 breast; NCI-H460 lung; SK-OV-3 ovarian.
Common to all, as to assay: inhibition of tumour cell growth, NCI panel, 48 h

`CCCN(CCC)CCCNC(=O)c1cc2c(-c3ccc(OC)c(OC)c3)nn(C)c2s1`: the GI50 in the assay with NCI-H23 lung was 58 µM; in the assay on COLO 205 colon, 13.6 µM; in the assay with T-47D breast, 27.5 µM; in the assay with RPMI-8226 leukemia, 14.6 µM; in the assay with EKVX NSCLC it was 71.7 µM; in the assay on HL-60(TB) leukemia, 20.7 µM. The GI50 in the assay on MOLT-4 leukemia is 17.6 µM; in the assay with BT-549 breast, 20.9 µM; in the assay with NCI-H460 lung, 32.6 µM; with SK-OV-3 ovarian it was 44.3 µM. In addition, the TGI in the assay on NCI-H23 lung was more than 100 µM; in the assay with COLO 205 colon, 30.3 µM; in the assay with T-47D breast, 98.7 µM; in the assay on RPMI-8226 leukemia, 42.2 µM; in the assay with EKVX NSCLC it was more than 100 µM; with HL-60(TB) leukemia, 46.2 µM. Moreover, the TGI with MOLT-4 leukemia was 59.5 µM; with BT-549 breast, 87 µM; in the assay on NCI-H460 lung, more than 100 µM; with SK-OV-3 ovarian, more than 100 µM.
Take `OC(COc1cccc2ccccc12)CN1CCN(c2ccccc2)CC1` (stereo not drawn): the GI50 is 15.9 µM in the assay on NCI-H23 lung; 16.4 µM with COLO 205 colon; 17.3 µM in the assay on T-47D breast; 17 µM in the assay on RPMI-8226 leukemia; 15.4 µM in the assay with EKVX NSCLC; 21.1 µM in the assay with HL-60(TB) leukemia. The GI50 was 16.3 µM in the assay on MOLT-4 leukemia, 17.9 µM with BT-549 breast, 15.9 µM in the assay on NCI-H460 lung and 17 µM with SK-OV-3 ovarian. Further, the TGI amounted to 31.9 µM in the assay with NCI-H23 lung; 30.9 µM in the assay on COLO 205 colon; 34.7 µM with T-47D breast; 42.9 µM with RPMI-8226 leukemia; 32.3 µM in the assay with EKVX NSCLC; 52.4 µM in the assay with HL-60(TB) leukemia. The TGI in the assay with MOLT-4 leukemia was found to be 56.3 µM; in the assay with BT-549 breast it was 32.2 µM; with NCI-H460 lung, 31 µM; in the assay with SK-OV-3 ovarian, 32.4 µM.
On to `O=C1/C(=C/c2ccccc2)CCC/C1=C\c1ccccc1`, for which the GI50 was 6.88 µM in the assay with NCI-H23 lung; 6.31 µM and 15.1 µM in the assay on COLO 205 colon; 15.1 µM with T-47D breast; 2.89 µM and 2.23 µM in the assay with RPMI-8226 leukemia; 7.8 µM and 15.8 µM in the assay with EKVX NSCLC; 10.4 µM and 26.1 µM in the assay with HL-60(TB) leukemia. The GI50 in the assay on MOLT-4 leukemia is 15.1 µM and 11.1 µM; in the assay on NCI-H460 lung, 6.09 µM and 19.8 µM; in the assay with SK-OV-3 ovarian, 6.28 µM. The TGI in the assay on NCI-H23 lung was 12.3 µM and 21.9 µM and 36.4 µM; in the assay on COLO 205 colon, 11.5 µM and 32.7 µM and 35.2 µM; with T-47D breast it was 11.6 µM and 38.6 µM; in the assay with RPMI-8226 leukemia it was 36.5 µM and > 20.1 µM and 5.89 µM; with EKVX NSCLC it was 14.8 µM and 38.2 µM and 39.1 µM; in the assay on HL-60(TB) leukemia, 36.5 µM and > 53 µM and 90 µM. Besides, the TGI was 36.5 µM and 71.1 µM and 70.2 µM in the assay with MOLT-4 leukemia; 10.9 µM and 24 µM with BT-549 breast; 12 µM and 34 µM and 46.8 µM in the assay on NCI-H460 lung; 12 µM and 43.1 µM and 46.7 µM in the assay on SK-OV-3 ovarian.
On to `C=C1CCC2C3(C)COC(c4ccc(SC)cc4)OC3CCC2(C)C1C/C=C1/C(=O)OCC1O` (stereo not drawn), for which the GI50 with NCI-H23 lung is 4.48 µM; in the assay on COLO 205 colon, 7.72 µM; with T-47D breast it was 2.53 µM; in the assay on RPMI-8226 leukemia, 2.64 µM; in the assay with EKVX NSCLC, 7.67 µM; in the assay with HL-60(TB) leukemia, 2.59 µM. Besides, the GI50 in the assay on MOLT-4 leukemia is 3.43 µM; in the assay on BT-549 breast it was 4.38 µM; in the assay with NCI-H460 lung, 8.78 µM; in the assay with SK-OV-3 ovarian, 16.3 µM. Also, the TGI stood at 17.4 µM in the assay on NCI-H23 lung; 20.6 µM in the assay with COLO 205 colon; 13.7 µM in the assay with T-47D breast; 15.1 µM in the assay with RPMI-8226 leukemia; 26.9 µM in the assay with EKVX NSCLC; 7.87 µM in the assay with HL-60(TB) leukemia. In addition, the TGI in the assay on MOLT-4 leukemia was 20.9 µM; with BT-549 breast it was 20.9 µM; with NCI-H460 lung, 22.3 µM; in the assay on SK-OV-3 ovarian, 32 µM.
With `CC[CH2][Sn]([Cl])([Cl])[CH2]CC`, the GI50 is 9.13 µM with NCI-H23 lung; 8.53 µM in the assay with COLO 205 colon; 1.17 µM in the assay on T-47D breast; 2.03 µM with RPMI-8226 leukemia; 12.3 µM with EKVX NSCLC; 2.94 µM in the assay with HL-60(TB) leukemia. For the same compound, the GI50 was 5.35 µM with MOLT-4 leukemia, 7.87 µM in the assay on BT-549 breast, 17.2 µM with NCI-H460 lung and 25.7 µM in the assay with SK-OV-3 ovarian. The TGI is 22 µM with NCI-H23 lung; 22.5 µM in the assay with COLO 205 colon; 3.36 µM in the assay with T-47D breast; 7.77 µM in the assay with RPMI-8226 leukemia; 26.4 µM with EKVX NSCLC; more than 100 µM in the assay on HL-60(TB) leukemia. Moreover, the TGI in the assay on MOLT-4 leukemia is more than 100 µM; with BT-549 breast, 20.5 µM; with NCI-H460 lung, 34.3 µM; with SK-OV-3 ovarian, 70.8 µM.
Regarding `O=C(NNC(=O)c1ccncc1)c1ccncc1`, the TGI in the assay with NCI-H23 lung, in the assay on COLO 205 colon, with T-47D breast, with RPMI-8226 leukemia, with EKVX NSCLC and in the assay on HL-60(TB) leukemia was more than 100 µM each time. Besides, the TGI with MOLT-4 leukemia, in the assay on BT-549 breast, in the assay on NCI-H460 lung and with SK-OV-3 ovarian was more than 100 µM each time.
Turning to `COc1ccc(/C=C\c2cc(OC)c(OC)c(OC)c2)cc1OC(=O)c1cccc(Cn2cc(CCOC(=O)c3cccc(Cn4nnc5c4C(=O)c4ccccc4C5=O)c3)nn2)c1`, the GI50 in the assay with NCI-H23 lung was less than 0.01 µM; in the assay with COLO 205 colon, 0.344 µM; with T-47D breast it was 51.6 µM; in the assay with RPMI-8226 leukemia it was less than 0.01 µM; with EKVX NSCLC, 0.062 µM; in the assay on HL-60(TB) leukemia, less than 0.01 µM. Besides, the GI50 with MOLT-4 leukemia is 0.0129 µM; with BT-549 breast, less than 0.01 µM; in the assay with NCI-H460 lung, less than 0.01 µM; in the assay with SK-OV-3 ovarian it was 2.73 µM. Further, the TGI was 18.3 µM in the assay on NCI-H23 lung; more than 100 µM with T-47D breast; more than 100 µM in the assay with RPMI-8226 leukemia; more than 100 µM with EKVX NSCLC; 0.0125 µM in the assay on HL-60(TB) leukemia; more than 100 µM in the assay on MOLT-4 leukemia. The TGI in the assay on BT-549 breast turned out to be 1.35 µM; with NCI-H460 lung, 12.6 µM; in the assay on SK-OV-3 ovarian, 46.7 µM.
Consider `O=C(c1cccs1)c1c(C(F)(F)F)n([O-])c2ccc(F)cc2[n+]1=O`, for which the GI50 with NCI-H23 lung is 1.22 µM; in the assay with COLO 205 colon it was 0.456 µM; in the assay on T-47D breast, 0.69 µM; in the assay on RPMI-8226 leukemia it was 0.188 µM; with EKVX NSCLC it was 1.69 µM; in the assay on HL-60(TB) leukemia, 0.154 µM. Besides, the GI50 with MOLT-4 leukemia is 0.3 µM; in the assay on BT-549 breast it was 0.815 µM; in the assay on NCI-H460 lung it was 1.38 µM; in the assay with SK-OV-3 ovarian, 1.85 µM. Further, the TGI was found to be 2.6 µM in the assay on NCI-H23 lung; 1.62 µM in the assay with COLO 205 colon; 3.23 µM in the assay on T-47D breast; 0.485 µM in the assay with RPMI-8226 leukemia; 3.7 µM with EKVX NSCLC; 0.394 µM with HL-60(TB) leukemia. In addition, the TGI in the assay with MOLT-4 leukemia amounted to 1.02 µM; in the assay on BT-549 breast it was 2.6 µM; in the assay with NCI-H460 lung, 3.84 µM; in the assay on SK-OV-3 ovarian, 3.59 µM.
Turning to `O=c1[nH]c(SCc2c(Cl)c(Cl)c(Cl)c(Cl)c2Cl)nc(=S)[nH]1`, the TGI in the assay on NCI-H23 lung is more than 100 µM; in the assay on COLO 205 colon, 33.8 µM; with T-47D breast it was more than 82.9 µM; in the assay with RPMI-8226 leukemia, 23.3 µM; with EKVX NSCLC it was more than 100 µM; in the assay with HL-60(TB) leukemia, 51.4 µM. In addition, the TGI in the assay with MOLT-4 leukemia was 21.3 µM; in the assay on BT-549 breast, more than 100 µM; with NCI-H460 lung, more than 100 µM; in the assay on SK-OV-3 ovarian, more than 100 µM.
In the case of `COc1cc2c3c(n(C)c(=O)c2cc1OC)-c1cc2c(cc1/C3=C\CCCBr)OCO2`, the GI50 with NCI-H23 lung was 19.6 µM; in the assay with COLO 205 colon, 18.8 µM; with T-47D breast it was more than 91.3 µM; in the assay with RPMI-8226 leukemia, 29.1 µM; in the assay on EKVX NSCLC it was 15.6 µM; with HL-60(TB) leukemia it was more than 80.3 µM. The GI50 in the assay on MOLT-4 leukemia was 21.4 µM; in the assay on BT-549 breast, more than 20.5 µM; in the assay on NCI-H460 lung, 26.9 µM; in the assay with SK-OV-3 ovarian, 18.1 µM. In addition, the TGI is 49.6 µM with NCI-H23 lung; 55.8 µM with COLO 205 colon; more than 100 µM with T-47D breast; more than 100 µM in the assay with RPMI-8226 leukemia; more than 62.5 µM in the assay on EKVX NSCLC; more than 100 µM in the assay on HL-60(TB) leukemia. For the same compound, the TGI in the assay with MOLT-4 leukemia is more than 66.2 µM; in the assay with BT-549 breast it was more than 51.9 µM; with NCI-H460 lung, more than 100 µM; in the assay with SK-OV-3 ovarian, 44.8 µM.

These data come from PubChem BioAssay (NCI).
